Experimental data: patent US9511073B2, “Aromatic amides and uses thereof” (TAXIS Pharmaceuticals, Inc., priority 2011, dated 2016)
≈ marks a conversion by molar mass, not a printed value.

The compounds below were run on Staphylococcus aureus (Isolate ID ATCC 29213) (assay: Bacterial assay: MIC by broth microdilution or agar dilution (CLSI), S. aureus ATCC 29213). Conditions: Staphylococcus aureus, ATCC29213, read-out: S. aureus MIC (μg/mL) Activity Range, S. aureus (ATCC29213).
Type: cell-based
Procedure: Compounds are tested for antimicrobial activity by susceptibility testing in liquid or on solid media. Minimum inhibitory concentrations (MICs) for compounds against each strain are determined by the broth microdilution or agar dilution method according to the guidelines of the Clinical Laboratories and Standards Institute, formerly the National Committee for Clinical Laboratory Standards (Clinical Laboratories and Standards Institute. Methods for Dilution Antimicrobial Susceptibility Tests for Bacteria That Grow Aerobically; Approved Standard—Seventh Edition. Document M7-A7. CLSI, Wayne, Pa., 2006; Clinical Laboratories and Standards Institute). The bacterial strains tested include S. aureus (Staphylococcus aureus (Isolate ID ATCC 29213)) and an FtsZ mutant of this isolate (FtsZ-G196A Staphylococcus aureus (Isolate ID GG/190723/sa/1.2)). Compound MICs were determined to be in the following activity ranges “A” activity≦0.25 μg/mL; “B” activity>0.25 μg/mL-1.0 μg/mL; “C” activity>1.0 μg/mL-16 μg/mL; “D” activity>16 μg/mL and ND=not determined. The bracketed entries indicate entantiomer(s) and their activity.
With `CNC(=O)CCC(Oc1ccc(F)c(C(N)=O)c1F)c1nc(-c2ccc(C(F)(F)F)cc2)c(Br)o1` (stereo not drawn) [Compound 93, 3-(1-(5-bromo-4-(4-(trifluoromethyl)phenyl)oxazol-2-yl)-4-(methylamino)-4-oxobutoxy)-2,6-difluorobenzamide] the MIC was 0.25 to 1 µg/mL (≈ 0.445 to 1.78 µM). Compound `CNC(=O)CC(Oc1ccc(F)c(C(N)=O)c1F)c1nc(-c2ccc(C(F)(F)F)cc2)c(Br)o1` (stereo not drawn) [Compound 87, 3-(1-(5-bromo-4-(4-(trifluoromethyl)phenyl)oxazol-2-yl)-3-(methylamino)-3-oxopropoxy)-2,6-difluorobenzamide] has an MIC of 0.25 to 1 µg/mL (≈ 0.456 to 1.82 µM). With `NC(=O)c1c(F)ccc(OC(COCC(=O)O)c2nc(-c3ccc(C(F)(F)F)cc3)c(Br)o2)c1F` (stereo not drawn) [Compound 86, 2-(2-(5-bromo-4-(4-(trifluoromethyl)phenyl)oxazol-2-yl)-2-(3-carbamoyl-2,4-difluorophenoxy)ethoxy)acetic acid] the MIC was greater than 16 µg/mL. For `NC(=O)c1c(F)ccc(OC(COP(=O)(O)O)c2nc(-c3ccc(C(F)(F)F)cc3)c(Br)o2)c1F` (stereo not drawn) [Compound 81, 2-(5-bromo-4-(4-(trifluoromethyl)phenyl)oxazol-2-yl)-2-(3-carbamoyl-2,4-difluorophenoxy)ethyl dihydrogen phosphate], the MIC was 0.25 to 1 µg/mL. Work on `NC(=O)c1c(F)ccc(O[C@H](CO)c2nc(-c3ccc(F)cc3)c(Br)o2)c1F` [Compound 279B, (R)-3-(1-(5-bromo-4-(4-fluorophenyl)oxazol-2-yl)-2-hydroxyethoxy)-2,6-difluorobenzamide] yielded an MIC of 0.25 to 1 µg/mL (≈ 0.547 to 2.19 µM). With `N#Cc1ccc(-c2nc(C(CO)Oc3ccc(F)c(C(N)=O)c3F)oc2Br)s1` (stereo not drawn) [Compound 236, 3-(1-(5-bromo-4-(5-cyanothiophen-2-yl)oxazol-2-yl)-2-hydroxyethoxy)-2,6-difluorobenzamide] the MIC was 0.25 to 1 µg/mL (≈ 0.532 to 2.13 µM). Work on `NC(=O)OCC(Oc1ccc(F)c(C(N)=O)c1F)c1nc(-c2ccc(C(F)(F)F)cc2)c(Cl)o1` (stereo not drawn) [Compound 52, 2-(3-carbamoyl-2,4-difluorophenoxy)-2-(5-chloro-4-(4-(trifluoromethyl)phenyl)oxazol-2-yl)ethyl carbamate] yielded an MIC of 0.25 to 1 µg/mL (≈ 0.494 to 1.98 µM). For `Cn1nccc1CNC(=O)OCC(Oc1ccc(F)c(C(N)=O)c1F)c1nc(-c2ccc(C(F)(F)F)cc2)c(Br)o1` (stereo not drawn) [Compound 194, 2-(5-bromo-4-(4-(trifluoromethyl)phenyl)oxazol-2-yl)-2-(3-carbamoyl-2,4-difluorophenoxy)ethyl ((1-methyl-1H-pyrazol-5-yl)methyl)carbamate], the MIC was less than 0.25 µg/mL. `NC(=O)c1c(F)ccc(OC(COC(=O)NCc2cccnc2)c2nc(-c3ccc(C(F)(F)F)cc3)c(Br)o2)c1F` (stereo not drawn) [Compound 166, 2-(5-bromo-4-(4-(trifluoromethyl)phenyl)oxazol-2-yl)-2-(3-carbamoyl-2,4-difluorophenoxy)ethyl (pyridin-3-ylmethyl)carbamate] showed an MIC of less than 0.25 µg/mL. `NC(=O)c1c(F)ccc(OC(CO)c2nc(-c3ccc(O)cc3)c(Br)o2)c1F` (stereo not drawn) [Compound 110, 3-(1-(5-bromo-4-(4-hydroxyphenyl)oxazol-2-yl)-2-hydroxyethoxy)-2,6-difluorobenzamide] showed an MIC greater than 16 µg/mL. `NC(=O)c1c(F)ccc(OC(CO)c2nc(-c3ccc(C(F)(F)F)cc3)sc2Br)c1F` (stereo not drawn) [Compound 131, 3-(1-(5-bromo-2-(4-(trifluoromethyl)phenyl)thiazol-4-yl)-2-hydroxyethoxy)-2,6-difluorobenzamide] gave an MIC greater than 16 µg/mL. In the case of `NC(=O)c1c(F)ccc(OC(COC(=O)NCc2cc[n+]([O-])cc2)c2nc(-c3ccc(C(F)(F)F)cc3)c(Br)o2)c1F` (stereo not drawn) [Compound 175, 4-((((2-(5-bromo-4-(4-(trifluoromethyl)phenyl)oxazol-2-yl)-2-(3-carbamoyl-2,4-difluorophenoxy)ethoxy)carbonyl)amino)methyl)pyridine 1-oxide], the MIC is reported as 1 to 16 µg/mL (≈ 1.52 to 24.3 µM). `CCOc1cc2nc(C(C)Oc3ccc(F)c(C(N)=O)c3F)sc2nc1Br` (stereo not drawn) [Compound 25, 3-(1-(5-bromo-6-ethoxythiazolo[5,4-b]pyridin-2-yl)ethoxy)-2,6-difluorobenzamide] showed an MIC of 0.25 to 1 µg/mL (≈ 0.546 to 2.18 µM). `NC(=O)c1c(F)ccc(OC(CO)c2nc(-c3ccccc3F)co2)c1F` (stereo not drawn) [Compound 223, 2,6-difluoro-3-(1-(4-(2-fluorophenyl)oxazol-2-yl)-2-hydroxyethoxy)benzamide] showed an MIC greater than 16 µg/mL. `COC(=O)CCNC(=O)OCC(Oc1ccc(F)c(C(N)=O)c1F)c1nc(-c2ccc(C(F)(F)F)cc2)c(Br)o1` (stereo not drawn) [Compound 141, methyl 3-(((2-(5-bromo-4-(4-(trifluoromethyl)phenyl)oxazol-2-yl)-2-(3-carbamoyl-2,4-difluorophenoxy)ethoxy)carbonyl)amino)propanoate] gave an MIC of less than 0.25 µg/mL. `CS(=O)(=O)OCC(Oc1ccc(F)c(C(N)=O)c1F)c1nc(-c2ccc(C(F)(F)F)cc2)c(Cl)o1` (stereo not drawn) [Compound 45, 2-(3-carbamoyl-2,4-difluorophenoxy)-2-(5-chloro-4-(4-(trifluoromethyl)phenyl)oxazol-2-yl)ethyl methanesulfonate] showed an MIC of 1 to 16 µg/mL. In the case of `NC(=O)c1c(F)ccc(OC(CO)c2nc(-c3ccc(C(F)(F)F)cc3)oc2Br)c1F` (stereo not drawn) [Compound 138, 3-(1-(5-bromo-2-(4-(trifluoromethyl)phenyl)oxazol-4-yl)-2-hydroxyethoxy)-2,6-difluorobenzamide], the MIC is reported as 1 to 16 µg/mL (≈ 1.97 to 31.5 µM). Work on `CCNC(=O)NCC(Oc1ccc(F)c(C(N)=O)c1F)c1nc(-c2ccc(C(F)(F)F)cc2)c(Br)o1` (stereo not drawn) [Compound 291, 3-(1-(5-bromo-4-(4-(trifluoromethyl)phenyl)oxazol-2-yl)-2-(3-ethylureido)ethoxy)-2,6-difluorobenzamide] yielded an MIC of less than 0.25 µg/mL. `NC(=O)c1c(F)ccc(OC(CO)c2nc(-c3ccc(N4CCCC4)c(Br)c3)c(Br)o2)c1F` (stereo not drawn) [Compound 256, 3-(1-(5-bromo-4-(3-bromo-4-(pyrrolidin-1-yl)phenyl)oxazol-2-yl)-2-hydroxyethoxy)-2,6-difluorobenzamide] showed an MIC of 1 to 16 µg/mL (≈ 1.7 to 27.2 µM). In the case of `Cc1nnc(C(Oc2ccc(F)c(C(N)=O)c2F)c2nc(-c3ccc(C(F)(F)F)cc3)co2)o1` (stereo not drawn) [Compound 218, 2,6-difluoro-3-((5-methyl-1,3,4-oxadiazol-2-yl)(4-(4-(trifluoromethyl)phenyl)oxazol-2-yl)methoxy)benzamide], the MIC is reported as greater than 16 µg/mL. `C=CCc1oc(C(C)Oc2ccc(F)c(C(N)=O)c2F)nc1-c1ccc(Cl)cc1` (stereo not drawn) [Compound 7] showed an MIC of 0.25 to 1 µg/mL (≈ 0.597 to 2.39 µM). Compound `COCCn1cnnc1CNC(=O)OCC(Oc1ccc(F)c(C(N)=O)c1F)c1nc(-c2ccc(C(F)(F)F)cc2)c(Br)o1` (stereo not drawn) [Compound 206, 2-(5-bromo-4-(4-(trifluoromethyl)phenyl)oxazol-2-yl)-2-(3-carbamoyl-2,4-difluorophenoxy)ethyl ((4-(2-methoxyethyl)-4H-1,2,4-triazol-3-yl)methyl)carbamate] has an MIC of 1 to 16 µg/mL (≈ 1.45 to 23.2 µM). Work on `NC(=O)c1c(F)ccc(OC(CC(CO)CO)c2nc(-c3ccc(C(F)(F)F)cc3)c(Br)o2)c1F` (stereo not drawn) [Compound 139, 3-(1-(5-bromo-4-(4-(trifluoromethyl)phenyl)oxazol-2-yl)-4-hydroxy-3-(hydroxymethyl)butoxy)-2,6-difluorobenzamide] yielded an MIC of 1 to 16 µg/mL (≈ 1.77 to 28.3 µM). With `C=CC(Oc1ccc(F)c(C(N)=O)c1F)c1nc(-c2ccc(C(F)(F)F)cc2)c(Br)o1` (stereo not drawn) [Compound 102, 3-((1-(5-bromo-4-(4-(trifluoromethyl)phenyl)oxazol-2-yl)allyl)oxy)-2,6-difluorobenzamide] the MIC was 1 to 16 µg/mL (≈ 1.99 to 31.8 µM). `C=CCc1oc(C(C)Oc2ccc(F)c(C(N)=O)c2F)nc1-c1ccc(OC)cc1` (stereo not drawn) [Compound 9] was tested, and the MIC was 0.25 to 1 µg/mL (≈ 0.603 to 2.41 µM). Compound `NC(=O)c1c(F)ccc(OC(CCO)c2nc(-c3ccc(C(F)(F)F)cc3)c(Br)o2)c1F` (stereo not drawn) [Compound 73, 3-(1-(5-bromo-4-(4-(trifluoromethyl)phenyl)oxazol-2-yl)-3-hydroxypropoxy)-2,6-difluorobenzamide] has an MIC of 0.25 to 1 µg/mL (≈ 0.48 to 1.92 µM). In the case of `COc1ccc(-c2coc(C(CO)Oc3ccc(F)c(C(N)=O)c3F)n2)c(F)c1` (stereo not drawn) [Compound 228, 2,6-difluoro-3-(1-(4-(2-fluoro-4-methoxyphenyl)oxazol-2-yl)-2-hydroxyethoxy)benzamide], the MIC is reported as greater than 16 µg/mL. Compound `NC(=O)c1c(F)ccc(OC(CO)c2nc(-c3ccc(Cl)cc3)cs2)c1F` (stereo not drawn) [Compound 13, 3-(1-(4-(4-chlorophenyl)thiazol-2-yl)-2-hydroxyethoxy)-2,6-difluorobenzamide] has an MIC of 0.25 to 1 µg/mL (≈ 0.609 to 2.43 µM). `Cc1cccc(CNC(=O)OCC(Oc2ccc(F)c(C(N)=O)c2F)c2nc(-c3ccc(C(F)(F)F)cc3)c(Br)o2)n1` (stereo not drawn) [Compound 199, 2-(5-bromo-4-(4-(trifluoromethyl)phenyl)oxazol-2-yl)-2-(3-carbamoyl-2,4-difluorophenoxy)ethyl ((6-methylpyridin-2-yl)methyl)carbamate] was tested, and the MIC was 0.25 to 1 µg/mL (≈ 0.381 to 1.53 µM). Work on `NC(=O)CC(Oc1ccc(F)c(C(N)=O)c1F)c1nc(-c2ccc(C(F)(F)F)cc2)c(Br)o1` (stereo not drawn) [Compound 96, 3-(3-amino-1-(5-bromo-4-(4-(trifluoromethyl)phenyl)oxazol-2-yl)-3-oxopropoxy)-2,6-difluorobenzamide] yielded an MIC of 1 to 16 µg/mL (≈ 1.87 to 29.9 µM). Compound `COc1ncc(-c2nc([C@@H](CO)Oc3ccc(F)c(C(N)=O)c3F)oc2Br)cn1` [Compound 257B, (R)-3-(1-(5-bromo-4-(2-methoxypyrimidin-5-yl)oxazol-2-yl)-2-hydroxyethoxy)-2,6-difluorobenzamide] has an MIC greater than 16 µg/mL. For `COc1ccc(-c2nc(C(CO)Oc3ccc(F)c(C(N)=O)c3F)oc2Br)cc1` (stereo not drawn) [Compound 112, 3-(1-(5-bromo-4-(4-methoxyphenyl)oxazol-2-yl)-2-hydroxyethoxy)-2,6-difluorobenzamide], the MIC was 1 to 16 µg/mL (≈ 2.13 to 34.1 µM). With `CNC(=O)C(Oc1ccc(F)c(C(N)=O)c1F)c1nc(-c2ccc(Cl)cc2)cs1` (stereo not drawn) [Compound 34, 3-(1-(4-(4-chlorophenyl)thiazol-2-yl)-2-(methylamino)-2-oxoethoxy)-2,6-difluorobenzamide] the MIC was less than 0.25 µg/mL.
